{
  "source": "patent US12077503B2",
  "about": "“Substituted cyclic amides and their use as herbicides” (FMC CORPORATION, priority 2015, dated 2024)",
  "assay_in_all_cases": "Test C preemergence",
  "format_in_all_cases": "in vivo",
  "key": {"[1]": {"system": "foxtail, giant (giant foxtail, Setaria faberii)", "conditions": "for Plant response rating, Foxtail, Giant: scale 0 to 100, 0 no effect, 100 complete control", "method_in_brief": "(§1)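 Preemergence: sow in loam-sand soil and treat. Postemergence: grow in peat-moss/vermiculite medium to 2–18 cm (1–4 leaves) and spray. Compound in non-phytotoxic solvent with surfactant; keep in greenhouse 13–15 d; score visually against controls, 0 (none) to 100 (full control).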"}, "[2]": {"system": "nutsedge, yellow (yellow nutsedge, Cyperus esculentus)", "conditions": "for Plant response rating, Nutsedge, Yellow: scale 0 to 100, 0 no effect, 100 complete control", "method_in_brief": "as §1"}, "[3]": {"system": "ragweed (common ragweed, Ambrosia elatior)", "conditions": "for Plant response rating, Ragweed: scale 0 to 100, 0 no effect, 100 complete control", "method_in_brief": "as §1"}, "[4]": {"system": "ryegrass, Italian (Italian ryegrass, Lolium multiflorum)", "conditions": "for Plant response rating, Ryegrass, Italian: scale 0 to 100, 0 no effect, 100 complete control", "method_in_brief": "as §1"}, "[5]": {"system": "morningglory (Ipomoea coccinea)", "conditions": "for Plant response rating, Morningglory: scale 0 to 100, 0 no effect, 100 complete control", "method_in_brief": "as §1"}, "[6]": {"system": "velvetleaf (Abutilon theophrasti)", "conditions": "for Plant response rating, Velvetleaf: scale 0 to 100, 0 no effect, 100 complete control", "method_in_brief": "as §1"}, "[7]": {"system": "johnsongrass (Sorghum halepense)", "conditions": "for Plant response rating, Johnsongrass: scale 0 to 100, 0 no effect, 100 complete control", "method_in_brief": "as §1"}, "[8]": {"system": "lambsquarters (Chenopodium album)", "conditions": "for Plant response rating, Lambsquarters: scale 0 to 100, 0 no effect, 100 complete control", "method_in_brief": "as §1"}, "[9]": {"system": "barnyardgrass (Echinochloa crus-galli)", "conditions": "for Plant response rating, Barnyardgrass: scale 0 to 100, 0 no effect, 100 complete control", "method_in_brief": "as §1"}, "soybean (Glycine max)": {"system": "soybean (Glycine max)", "conditions": "for Plant response rating, Soybean: scale 0 to 100, 0 no effect, 100 complete control", "method_in_brief": "as §1"}, "[10]": {"system": "blackgrass (Alopecurus myosuroides)", "conditions": "for Plant response rating, Blackgrass: scale 0 to 100, 0 no effect, 100 complete control", "method_in_brief": "as §1"}, "[11]": {"system": "Galium (catchweed bedstraw, Galium aparine)", "conditions": "for Plant response rating, Galium: scale 0 to 100, 0 no effect, 100 complete control", "method_in_brief": "as §1"}, "[12]": {"system": "wheat (winter wheat, Triticum aestivum)", "conditions": "for Plant response rating, Wheat: scale 0 to 100, 0 no effect, 100 complete control", "method_in_brief": "as §1"}, "[13]": {"system": "crabgrass, large (large crabgrass, Digitaria sanguinalis)", "conditions": "for Plant response rating, Crabgrass, Large: scale 0 to 100, 0 no effect, 100 complete control", "method_in_brief": "as §1"}, "[14]": {"system": "pigweed (Amaranthus retroflexus)", "conditions": "for Plant response rating, Pigweed: scale 0 to 100, 0 no effect, 100 complete control", "method_in_brief": "as §1"}, "corn (Zea mays)": {"system": "corn (Zea mays)", "conditions": "for Plant response rating, Corn: scale 0 to 100, 0 no effect, 100 complete control", "method_in_brief": "as §1"}, "[15]": {"system": "oilseed rape (Brassica napus)", "conditions": "for Plant response rating, Oilseed Rape: scale 0 to 100, 0 no effect, 100 complete control", "method_in_brief": "as §1"}, "[16]": {"conditions": "31 g ai/ha, 0 is no effect, 100 is complete control"}},
  "data": [
    {"smiles": "O=C1NCC(c2cccc(OC(F)(F)C(F)F)c2)C1C(=O)Nc1cccc(F)c1F", "note": "(racemic) [Compound 697]", "values": [
      {"measurement": "Plant response rating (scale of 0 to 100), Foxtail, Giant", "setting": "[1]; [16]", "value": 85},
      {"measurement": "Plant response rating, Foxtail, Giant", "setting": "[1]; 62 g ai/ha", "value": 85},
      {"measurement": "Plant response rating, Foxtail, Giant", "setting": "[1]; 125 g ai/ha", "value": 90},
      {"measurement": "Plant response rating, Foxtail, Giant", "setting": "[1]; 250 g ai/ha", "value": 90},
      {"measurement": "Plant response rating (scale of 0 to 100), Nutsedge, Yellow", "setting": "[2]; [16]", "value": 0},
      {"measurement": "Plant response rating, Nutsedge, Yellow", "setting": "[2]; 62 g ai/ha", "value": 0},
      {"measurement": "Plant response rating, Nutsedge, Yellow", "setting": "[2]; 125 g ai/ha", "value": 0},
      {"measurement": "Plant response rating, Nutsedge, Yellow", "setting": "[2]; 250 g ai/ha", "value": 0},
      {"measurement": "Plant response rating (scale of 0 to 100), Ragweed", "setting": "[3]; [16]", "value": 60},
      {"measurement": "Plant response rating, Ragweed", "setting": "[3]; 62 g ai/ha", "value": 80},
      {"measurement": "Plant response rating, Ragweed", "setting": "[3]; 125 g ai/ha", "value": 80},
      {"measurement": "Plant response rating, Ragweed", "setting": "[3]; 250 g ai/ha", "value": 80},
      {"measurement": "Plant response rating (scale of 0 to 100), Ryegrass, Italian", "setting": "[4]; [16]", "value": 15},
      {"measurement": "Plant response rating, Ryegrass, Italian", "setting": "[4]; 62 g ai/ha", "value": 55},
      {"measurement": "Plant response rating, Ryegrass, Italian", "setting": "[4]; 125 g ai/ha", "value": 45},
      {"measurement": "Plant response rating, Ryegrass, Italian", "setting": "[4]; 250 g ai/ha", "value": 50},
      {"measurement": "Plant response rating (scale of 0 to 100), Morningglory", "setting": "[5]; [16]", "value": 10},
      {"measurement": "Plant response rating, Morningglory", "setting": "[5]; 62 g ai/ha", "value": 10},
      {"measurement": "Plant response rating, Morningglory", "setting": "[5]; 125 g ai/ha", "value": 25},
      {"measurement": "Plant response rating, Morningglory", "setting": "[5]; 250 g ai/ha", "value": 30},
      {"measurement": "Plant response rating (scale of 0 to 100), Velvetleaf", "setting": "[6]; [16]", "value": 0},
      {"measurement": "Plant response rating, Velvetleaf", "setting": "[6]; 62 g ai/ha", "value": 25},
      {"measurement": "Plant response rating, Velvetleaf", "setting": "[6]; 125 g ai/ha", "value": 65},
      {"measurement": "Plant response rating, Velvetleaf", "setting": "[6]; 250 g ai/ha", "value": 35},
      {"measurement": "Plant response rating (scale of 0 to 100), Johnsongrass", "setting": "[7]; [16]", "value": 70},
      {"measurement": "Plant response rating, Johnsongrass", "setting": "[7]; 62 g ai/ha", "value": 75},
      {"measurement": "Plant response rating, Johnsongrass", "setting": "[7]; 125 g ai/ha", "value": 85},
      {"measurement": "Plant response rating, Johnsongrass", "setting": "[7]; 250 g ai/ha", "value": 85},
      {"measurement": "Plant response rating (scale of 0 to 100), Lambsquarters", "setting": "[8]; [16]", "value": 35},
      {"measurement": "Plant response rating, Lambsquarters", "setting": "[8]; 62 g ai/ha", "value": 40},
      {"measurement": "Plant response rating, Lambsquarters", "setting": "[8]; 125 g ai/ha", "value": 65},
      {"measurement": "Plant response rating, Lambsquarters", "setting": "[8]; 250 g ai/ha", "value": 60},
      {"measurement": "Plant response rating (scale of 0 to 100), Barnyardgrass", "setting": "[9]; [16]", "value": 85},
      {"measurement": "Plant response rating, Barnyardgrass", "setting": "[9]; 62 g ai/ha", "value": 90},
      {"measurement": "Plant response rating, Barnyardgrass", "setting": "[9]; 125 g ai/ha", "value": 90},
      {"measurement": "Plant response rating, Barnyardgrass", "setting": "[9]; 250 g ai/ha", "value": 90},
      {"measurement": "Plant response rating (scale of 0 to 100), Soybean", "setting": "soybean (Glycine max); [16]", "value": 0},
      {"measurement": "Plant response rating, Soybean", "setting": "soybean (Glycine max); 62 g ai/ha", "value": 10},
      {"measurement": "Plant response rating, Soybean", "setting": "soybean (Glycine max); 125 g ai/ha", "value": 0},
      {"measurement": "Plant response rating, Soybean", "setting": "soybean (Glycine max); 250 g ai/ha", "value": 10},
      {"measurement": "Plant response rating (scale of 0 to 100), Blackgrass", "setting": "[10]; [16]", "value": 70},
      {"measurement": "Plant response rating, Blackgrass", "setting": "[10]; 62 g ai/ha", "value": 75},
      {"measurement": "Plant response rating, Blackgrass", "setting": "[10]; 125 g ai/ha", "value": 90},
      {"measurement": "Plant response rating, Blackgrass", "setting": "[10]; 250 g ai/ha", "value": 90},
      {"measurement": "Plant response rating (scale of 0 to 100), Galium", "setting": "[11]; [16]", "value": 0},
      {"measurement": "Plant response rating, Galium", "setting": "[11]; 62 g ai/ha", "value": 85},
      {"measurement": "Plant response rating, Galium", "setting": "[11]; 125 g ai/ha", "value": 85},
      {"measurement": "Plant response rating, Galium", "setting": "[11]; 250 g ai/ha", "value": 90},
      {"measurement": "Plant response rating (scale of 0 to 100), Wheat", "setting": "[12]; [16]", "value": 0},
      {"measurement": "Plant response rating, Wheat", "setting": "[12]; 62 g ai/ha", "value": 0},
      {"measurement": "Plant response rating, Wheat", "setting": "[12]; 125 g ai/ha", "value": 10},
      {"measurement": "Plant response rating, Wheat", "setting": "[12]; 250 g ai/ha", "value": 35},
      {"measurement": "Plant response rating (scale of 0 to 100), Crabgrass, Large", "setting": "[13]; [16]", "value": 90},
      {"measurement": "Plant response rating, Crabgrass, Large", "setting": "[13]; 62 g ai/ha", "value": 95},
      {"measurement": "Plant response rating, Crabgrass, Large", "setting": "[13]; 125 g ai/ha", "value": 90},
      {"measurement": "Plant response rating, Crabgrass, Large", "setting": "[13]; 250 g ai/ha", "value": 95},
      {"measurement": "Plant response rating (scale of 0 to 100), Pigweed", "setting": "[14]; [16]", "value": 75},
      {"measurement": "Plant response rating, Pigweed", "setting": "[14]; 62 g ai/ha", "value": 80},
      {"measurement": "Plant response rating, Pigweed", "setting": "[14]; 125 g ai/ha", "value": 85},
      {"measurement": "Plant response rating, Pigweed", "setting": "[14]; 250 g ai/ha", "value": 85},
      {"measurement": "Plant response rating (scale of 0 to 100), Corn", "setting": "corn (Zea mays); [16]", "value": 40},
      {"measurement": "Plant response rating, Corn", "setting": "corn (Zea mays); 62 g ai/ha", "value": 65},
      {"measurement": "Plant response rating, Corn", "setting": "corn (Zea mays); 125 g ai/ha", "value": 80},
      {"measurement": "Plant response rating, Corn", "setting": "corn (Zea mays); 250 g ai/ha", "value": 75},
      {"measurement": "Plant response rating (scale of 0 to 100), Oilseed Rape", "setting": "[15]; [16]", "value": 20},
      {"measurement": "Plant response rating, Oilseed Rape", "setting": "[15]; 62 g ai/ha", "value": 70},
      {"measurement": "Plant response rating, Oilseed Rape", "setting": "[15]; 125 g ai/ha", "value": 80},
      {"measurement": "Plant response rating, Oilseed Rape", "setting": "[15]; 250 g ai/ha", "value": 85}
    ]}
  ]
}
